Test results as given in publication PMC10825183 (Nature Communications, 2024).
Several values for one entry are separate records, joined by “and”; a condition that tells them apart may be missing. Equal entries are not always repeated. Where two headings read alike, the source gives them in different places.

Tests used:
[1] = biological target: T1, hHCN2 CNBD R662A (Homo sapiens, UniProt Q9UL51, R662A); test: biochemical
[2] = biological target: rbHCN4 ΔDE (1-718) (Oryctolagus cuniculus, UniProt Q9TV66)
[3] = biological target: isolated C-linker and CNBD; conditions: ref Chow et al (2012), cited from earlier work
[4] = biological target: hHCN2 CNBD D698A (Homo sapiens, UniProt Q9UL51, D698A); conditions: cAMP titrant
[5] = biological target: T1, hHCN2 CNBD R662A; conditions: cAMP titrant
[6] = biological target: T2, human HCN2 CNBD ΔDE (Homo sapiens, UniProt Q9UL51); test: Isothermal titration calorimetry (ITC), CNBD ΔDE; conditions: cAMP titrated into 20 µM CNBD, 25 °C, mean ± SEM, n = 3
T2 sequence (Q9UL51 521-667): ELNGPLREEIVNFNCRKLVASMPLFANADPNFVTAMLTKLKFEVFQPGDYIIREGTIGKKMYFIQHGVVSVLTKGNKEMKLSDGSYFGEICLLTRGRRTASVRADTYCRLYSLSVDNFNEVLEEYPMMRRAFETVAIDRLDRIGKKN

[7] = test system: full-length HCN2 with a C-linker and CNBD from HCN4; conditions: ref Xu et al, JBC, 2010; cited from earlier work
[8] = biological target: rbHCN4 ΔC-term (1-758) (Oryctolagus cuniculus, UniProt Q9TV66); conditions: mean ± SEM
[9] = test system: native If current in sinoatrial node myocytes; conditions: read-out: affinity value for cAMP; ref DiFrancesco and Tortora, Nature, 1991; cited from earlier work
[10] = biological target: T3, human HCN2 CNBD ΔE (Homo sapiens, UniProt Q9UL51); test: Isothermal titration calorimetry (ITC), CNBD ΔE; format: binding; conditions: mean ± SEM, n = 3
T3 sequence (Q9UL51 521-681): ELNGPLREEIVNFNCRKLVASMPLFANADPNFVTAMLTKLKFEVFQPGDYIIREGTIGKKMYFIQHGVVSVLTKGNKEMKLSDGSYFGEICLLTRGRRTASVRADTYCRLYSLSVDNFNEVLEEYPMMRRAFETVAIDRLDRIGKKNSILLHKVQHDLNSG

[11] = biological target: T4, rbHCN4 ΔE (1-733) (Oryctolagus cuniculus, UniProt Q9TV66); test: Whole-cell patch clamp in HEK293T cells, HCN4 ΔE; format: cell-based, rabbit
T4 construct: rbHCN4 ΔE (1-733); expressed in transfected cells; host or cells: HEK293T
T4 sequence (Q9TV66 1-733): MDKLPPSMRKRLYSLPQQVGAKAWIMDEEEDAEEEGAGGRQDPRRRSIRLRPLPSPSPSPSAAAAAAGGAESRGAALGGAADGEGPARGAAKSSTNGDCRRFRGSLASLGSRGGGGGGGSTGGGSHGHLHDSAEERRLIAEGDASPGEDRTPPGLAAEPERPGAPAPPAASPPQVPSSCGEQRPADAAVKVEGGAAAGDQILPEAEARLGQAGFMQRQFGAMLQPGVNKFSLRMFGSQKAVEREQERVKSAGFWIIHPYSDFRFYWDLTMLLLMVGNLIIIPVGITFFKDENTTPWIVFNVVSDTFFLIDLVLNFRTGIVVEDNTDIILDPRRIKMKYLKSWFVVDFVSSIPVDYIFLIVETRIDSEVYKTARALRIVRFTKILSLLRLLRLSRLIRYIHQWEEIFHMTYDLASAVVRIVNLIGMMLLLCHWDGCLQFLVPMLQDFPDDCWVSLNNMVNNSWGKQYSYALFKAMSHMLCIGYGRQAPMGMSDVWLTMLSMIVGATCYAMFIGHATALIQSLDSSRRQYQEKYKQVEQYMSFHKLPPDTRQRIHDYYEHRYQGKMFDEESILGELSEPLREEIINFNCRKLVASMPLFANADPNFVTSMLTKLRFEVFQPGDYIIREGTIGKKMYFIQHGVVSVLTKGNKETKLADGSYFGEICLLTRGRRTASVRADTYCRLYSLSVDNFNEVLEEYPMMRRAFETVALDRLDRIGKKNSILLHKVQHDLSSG

[12] = 5 µM cAMP in pipette, mean ± SEM
[13] = Hill fit of shift in V1/2 vs cAMP concentration

T1 sequence (Q9UL51 521-706 R662A): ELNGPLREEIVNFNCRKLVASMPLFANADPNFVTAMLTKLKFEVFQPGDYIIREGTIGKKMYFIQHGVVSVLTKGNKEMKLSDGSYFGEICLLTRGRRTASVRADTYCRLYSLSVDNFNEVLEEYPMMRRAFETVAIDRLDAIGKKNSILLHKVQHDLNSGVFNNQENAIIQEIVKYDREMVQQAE
Chain of rbHCN4 ΔC-term (1-758) (Q9TV66 1-758, stated change not applied): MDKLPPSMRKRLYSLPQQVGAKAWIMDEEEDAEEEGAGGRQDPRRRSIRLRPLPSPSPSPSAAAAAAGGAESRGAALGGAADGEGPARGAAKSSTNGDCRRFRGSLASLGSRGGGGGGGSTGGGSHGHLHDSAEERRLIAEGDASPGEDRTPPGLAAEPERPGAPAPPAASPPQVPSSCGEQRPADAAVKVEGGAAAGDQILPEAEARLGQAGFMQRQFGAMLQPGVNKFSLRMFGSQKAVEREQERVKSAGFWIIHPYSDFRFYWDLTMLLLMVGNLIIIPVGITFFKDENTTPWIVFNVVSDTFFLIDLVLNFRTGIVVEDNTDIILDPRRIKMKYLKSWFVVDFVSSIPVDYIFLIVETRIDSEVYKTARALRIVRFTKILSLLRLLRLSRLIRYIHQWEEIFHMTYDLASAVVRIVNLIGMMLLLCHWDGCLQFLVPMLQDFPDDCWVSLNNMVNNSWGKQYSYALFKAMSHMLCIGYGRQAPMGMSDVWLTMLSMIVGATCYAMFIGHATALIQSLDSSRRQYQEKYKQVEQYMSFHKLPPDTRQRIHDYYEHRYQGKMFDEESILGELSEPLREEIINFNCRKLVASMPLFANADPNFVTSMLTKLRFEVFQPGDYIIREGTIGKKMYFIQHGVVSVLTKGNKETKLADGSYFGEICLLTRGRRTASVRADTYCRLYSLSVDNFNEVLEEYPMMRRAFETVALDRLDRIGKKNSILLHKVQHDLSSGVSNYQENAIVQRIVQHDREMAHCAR
Chain of hHCN2 CNBD D698A (Q9UL51 521-706 D698A): as the sequence (Q9UL51 521-706 R662A) above, with A142R, D178A counted along it

Nc1ncnc2c1ncn2[C@@H]1O[C@@H]2COP(=O)(O)O[C@H]2[C@H]1O [cAMP, Adenosine 3′,5′-cyclic monophosphate]
Kd ([1]; KD of individual experiments (source data Fig. 4e), cAMP titrant, unit inferred): 1.08 µM and 0.98 µM and 1.1 µM | Kd ([1]; KD, cAMP titrated into 20 µM CNBD, 25 °C, mean ± SEM, n = 3): 1 ± 0.03 µM | V1/2 with cAMP [2, 12]: -102.4± 0.6 mV | k (inverse slope factor) with cAMP ([2]; 5 µM cAMP, mean ± SEM): 7.6 ± 0.3 mV | Hill coefficient (nH) [2, 13]: 1 | Kd ([3]; read-out: binding affinity, higher affinity, protein at ~100uM or greater, predominantly tetramers): 0.12 µM | Kd ([3]; read-out: binding affinity, lower affinity, protein at ~100uM or greater, predominantly tetramers): 1.5 µM | Kd ([3]; read-out: binding affinity, single lower affinity, first two helices of the C-linker removed, monomeric protein): ~1.8 µM | Kd ([3]; read-out: binding affinity, single lower affinity, lower protein concentrations, tetramers less frequent): ~1.5 µM | stoichiometry (N) ([4]; mean ± SEM, n = 3): 0.8 ± 0.1 | N, representative sample (Fig. 4d) ([4]; single ITC experiment): 0.7 | stoichiometry (N) ([5]; mean ± SEM, n = 3): 0.9 ± 0.1 | N, representative sample (Fig. 4d) ([5]; single ITC experiment): 0.7 | Kd [6]: 9.5 ± 0.7 µM | EC50 [7]: 0.24 µM | V1/2 with cAMP ([8]; 1 µM cAMP in pipette): -88.9 ± 1.5 mV | k (inverse slope factor) with cAMP ([8]; 1 µM cAMP): 9.6 ± 0.5 mV | EC50 [9]: 0.2 µM | Kd ([10]; KD, cAMP titrated into 20 µM CNBD, 25 °C): 1.2 ± 0.1 µM | stoichiometry (N) ([10]; cAMP titrant): 1.0 ± 0.1 | V1/2 with cAMP [11, 12]: -97.2 ± 0.6 mV | k (inverse slope factor) with cAMP ([11]; 5 µM cAMP, mean ± SEM): 9.1 ± 1.2 mV | V1/2 + cAMP ([11]; 60 µM cAMP in pipette, mean ± SEM): -81.1 ± 0.8 mV | k + cAMP ([11]; 60 µM cAMP, mean ± SEM): 9.8 ± 0.8 mV | Hill coefficient (nH) [11, 13]: 0.9
